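GI50 marks 50% less growth. At the TGI there is no net growth.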
Experiments:
Assay in all cases: NCI-60 cell line screen, 384-well format
[1] = system: DU-145 prostate
[2] = system: HCC-2998 colon
[3] = system: SK-MEL-5 melanoma
[4] = system: MCF7 breast
[5] = system: A549 NSCLC
[6] = system: OVCAR-8 ovarian
[7] = system: COLO 205 colon
[8] = system: UACC-257 melanoma
[9] = system: UACC-62 melanoma
[10] = system: KM12 colon
[11] = system: PC-3 prostate
[12] = system: HOP-62 NSCLC
[13] = system: HOP-92 NSCLC
[14] = system: OVCAR-4 ovarian
[15] = system: TK-10 renal
[16] = system: SNB-19 CNS
[17] = system: SNB-75 CNS
[18] = system: HCT-15 colon
[19] = system: M14 melanoma
[20] = system: NCI-H522 lung
[21] = system: MALME-3M melanoma
[22] = system: 786-0 renal
[23] = system: NCI-H322M lung
[24] = system: T-47D breast
[25] = system: SN12C renal
[26] = system: MOLT-4 leukemia
[27] = system: MDA-MB-231 breast
[28] = system: NCI/ADR-RES ovarian
[29] = system: NCI-H23 lung
[30] = system: LOX IMVI melanoma
[31] = system: ACHN renal
[32] = system: SF-539 CNS
[33] = system: OVCAR-3 ovarian
[34] = system: MDA-MB-435 melanoma
[35] = system: HS 578T breast
[36] = system: CAKI-1 renal
[37] = system: U251 glioblastoma
[38] = system: HL-60(TB) leukemia
[39] = system: SK-OV-3 ovarian
[40] = system: MDA-MB-468 breast
[41] = system: NCI-H460 NSCLC
[42] = system: BT-549 breast
[43] = system: RXF 393 renal
[44] = system: SR leukemia
[45] = system: SK-MEL-2 melanoma
[46] = system: HT29 colon
[47] = system: SK-MEL-28 melanoma
[48] = system: SF-268 CNS
[49] = system: A498 renal
[50] = system: CCRF-CEM leukemia
[51] = system: EKVX NSCLC
[52] = system: RPMI-8226 leukemia

Q: Which results are given for `CCOC(=O)c1c(NN2CCN(CC(F)(F)F)CC2)oc(/C=C2\C=Nc3ncccc32)c1O`?
A: GI50 [1]: 3.08 µM; TGI [1]: > 100 µM; GI50 [2]: 1610 nM; TGI [2]: 6.01 µM; GI50 [3]: 2670 nM; TGI [3]: 14.9 µM; GI50 [4]: 3.69 µM; TGI [4]: 10.2 µM; GI50 [5]: 5.31 µM; TGI [5]: > 100 µM; GI50 [6]: 5.48 µM; TGI [6]: > 100 µM; GI50 [7]: 373 nM; TGI [7]: 3.37 µM; GI50 [8]: 17.4 µM; TGI [8]: 36.2 µM; GI50 [9]: 2120 nM; TGI [9]: 3.96 µM; GI50 [10]: 3.28 µM; TGI [10]: 8.02 µM; GI50 [11]: 3.64 µM; TGI [11]: > 100 µM; GI50 [12]: 2860 nM; TGI [12]: 9.4 µM; GI50 [13]: > 100 µM; TGI [13]: > 100 µM; GI50 [14]: 96.1 µM; TGI [14]: > 100 µM; GI50 [15]: > 100 µM; TGI [15]: > 100 µM; GI50 [16]: 8.03 µM; TGI [16]: > 100 µM; GI50 [17]: 6.66 µM; TGI [17]: 18.9 µM; GI50 [18]: 5.2 µM; TGI [18]: > 100 µM; GI50 [19]: 3.36 µM; TGI [19]: 10.5 µM; GI50 [20]: 1140 nM; TGI [20]: > 100 µM; GI50 [21]: 3.05 µM; TGI [21]: 9.54 µM; GI50 [22]: 3.39 µM; TGI [22]: 8.44 µM; GI50 [23]: 4.05 µM; TGI [23]: > 100 µM; GI50 [24]: > 100 µM; TGI [24]: > 100 µM; GI50 [25]: 5.42 µM; TGI [25]: > 100 µM; GI50 [26]: 1880 nM; TGI [26]: 3.37 µM; GI50 [27]: 5.8 µM; TGI [27]: > 100 µM; GI50 [28]: > 100 µM; TGI [28]: > 100 µM; GI50 [29]: 4.83 µM; TGI [29]: 18.5 µM; GI50 [30]: 3.14 µM; TGI [30]: 9.61 µM; GI50 [31]: 5.86 µM; TGI [31]: > 100 µM; GI50 [32]: 2840 nM; TGI [32]: 9.8 µM; GI50 [33]: 2820 nM; TGI [33]: > 100 µM; GI50 [34]: 10.8 µM; TGI [34]: 29.4 µM; GI50 [35]: 1550 nM; TGI [35]: 3.21 µM; GI50 [36]: 3.83 µM; TGI [36]: > 100 µM; GI50 [37]: 2760 nM; TGI [37]: > 100 µM; GI50 [38]: 1180 nM; TGI [38]: 2410 nM; GI50 [39]: 2720 nM; TGI [39]: > 100 µM; GI50 [40]: 3.2 µM; TGI [40]: 9.71 µM; GI50 [41]: 2230 nM; TGI [41]: 4.4 µM; GI50 [42]: 2440 nM; TGI [42]: 5.08 µM; GI50 [43]: 1940 nM; TGI [43]: 3.91 µM; GI50 [44]: 222 nM; TGI [44]: 488 nM; GI50 [45]: 2620 nM; TGI [45]: 4.86 µM; GI50 [46]: 2500 nM; TGI [46]: > 100 µM; GI50 [47]: 5.23 µM; TGI [47]: 16.7 µM; GI50 [48]: 4.06 µM; TGI [48]: 11.6 µM; GI50 [49]: 2750 nM; TGI [49]: > 100 µM; GI50 [50]: 911 nM; TGI [50]: 2310 nM; GI50 [51]: 7.51 µM; TGI [51]: > 100 µM; GI50 [52]: 1960 nM; TGI [52]: 4.22 µM

From PubChem BioAssay (NCI)
